{
  "source": "patent US6512007B1",
  "about": "“Use of galiella lactone” (Bayer Aktiengesellschaft, priority 2000, dated 2003)",
  "tested_on": "Stat3",
  "experiment": "IL-6-induced phosphorylation of Stat3 (tyrosine-705, serine-727) in HepG2 cells, immunoprecipitation/Western blot",
  "type": "cell-based, human",
  "settings": "HepG2, IL-6 50 ng/ml; all concentrations tested, up to 16 μg/ml, equivalent to 165 μM",
  "source_text": "A crucial step in IL-6-dependent intracellular signal transduction is the phosphorylation of tyrosine-705 in Stat3 and tyrosine-701 in Stat1. […] However, inhibitors which inhibit the Stat3 and Stat1 phosphorylation also have crucial effects on other signal cascades, and therefore pharmaceutically usable inhibitors of IL-6-dependent gene expression should, in the concentration range in which they display their pharmacological effect, affect the Stat3 or Stat1 phosphorylation only slightly or not at all.\nSeed out HepG2 cells in Petri dishes (diameter: 10 cm) (OptiMEM medium with 10% fetal calf serum and penicillin/streptomycin (100 iu) cell density: 5×10^5 cell/ml). Incubate in a moist atmosphere with 5% CO2 at 37° C. for 24 h. Replace medium by fresh OptiMEM medium with 0.5% fetal calf serum and penicillin/streptomycin (100 iu) and incubate for a further 48 h. Replace medium by fresh OptiMEM medium with 0.5% fetal calf serum and penicillin/streptomycin (100 iu), add test substances in various concentrations, and incubate for 60 min. 5 μl of the substances dissolved in ethanol, or only ethanol (controls), were added per mixture (10 ml). Induce cells by adding IL-6 (final concentrations 50 ng/ml).\nAfter 20 min. remove medium and wash cell lawn twice wtih 1.5 ml of ice-cold PBS (137 mM NaCl, 2.7 mM KCl, 8.1 mM Na2HPO4×2H2O, 1.5 mM KH2PO4) each time. […]",
  "data": [
    {"smiles": "C[C@H]1C=C2C(=O)O[C@H]3CC[C@@H](C1)[C@@]23O", "note": "[galiella lactone]", "values": [
      {"measurement": "effect on the phosphorylation of Stat3", "value": "no effect"}
    ]}
  ]
}
